Test results taken from patent US8435983B2, “Conformationally restrained epothilone analogues as anti-leukemic agents” (The University of Toledo, priority 2007, dated 2013).
Like-named read-outs stand apart in the source and are kept apart here.

Columns and labels:
[1] = test system: BCF-7 breast cancer cells; experiment: preliminary growth inhibition assay on BCF-7 breast cancer cells; type: cell-based
[2] = test system: NCI 60 human tumor cell lines, including breast cancer and ovarian cancer cell lines; experiment: NCI in vitro 60 cell line human tumor screen, cell line panel; type: cell-based
[3] = test system: CCRF-CEM leukemia cell line; settings: comparison value for paclitaxel; cited from earlier work
SR leukemia cell line [4] = settings: comparison value for paclitaxel; cited from earlier work
[5] = test system: CCRF-CEM leukemia cell line; experiment: NCI in vitro 60 cell line human tumor screen, CCRF-CEM; type: cell-based; settings: NCI 60 cell line screen
SR leukemia cell line [6] = experiment: NCI in vitro 60 cell line human tumor screen, SR; type: cell-based; settings: NCI 60 cell line screen

CC1=C(c2ccccc2)C[C@H]2/C=C(/C)CCC[C@H](C)[C@H](O)[C@@H](C)C(=O)C(C)(C)[C@@H](O)CC(=O)O[C@H]12 [Compound 1a]
growth inhibition [1]: no activity

C=C(C)CCC[C@H](C)[C@H](O)[C@@H](C)C(=O)C(C)(C)[C@@H](O)CC(=O)O[C@@H]1C(C)=C(c2ccc(C)cn2)C[C@H]1/C=C/c1ccccc1 [Compound 35, 3,7-Dihydroxy-4,4,6,8,12-pentamethyl-5-oxo-tridec-12-enoic acid 2-methyl-3-(5-methyl-pyridin-2-yl)-5-styryl-cyclopent-2-enyl ester]
activity in the NCI 60 cell line assay ([2]; any of the cell lines): no significant activity

CC(=O)O[C@H]1C(=O)[C@@]2(C)[C@H]([C@H](OC(=O)c3ccccc3)[C@]3(O)C[C@H](OC(=O)[C@H](O)[C@@H](NC(=O)c4ccccc4)c4ccccc4)C(C)=C1C3(C)C)[C@]1(OC(C)=O)CO[C@@H]1C[C@@H]2O [paclitaxel]
GI50 [3]: 12.6 nM | GI50 (SR leukemia cell line [4]): 15.8 nM

CC1=C(c2ccc(C)cn2)C[C@H]2/C=C(/C)CCC[C@H](C)[C@H](O)[C@@H](C)C(=O)C(C)(C)[C@@H](O)CC(=O)O[C@H]12 [Compound 1b, (3S,6R,7S,8S,1′S,5′S)-7,11-Dihydroxy-3,8,8,10,12,16-hexamethyl-2-(5-methyl-pyridin-2-yl)-3a,7,8,10,11,12,13,14,15,17a-decahydro-1H,6H-4-oxa-cyclopentacyclohexadecene-5,9-dione]
GI50 [5]: 2.7 nM | GI50 (SR leukemia cell line [6]): 2.9 nM | growth inhibitory activity on the other NCI 60 cell lines ([2]; all lines other than CCRF-CEM and SR, including breast cancer and ovarian cancer cell lines): no significant activity
